Data on 16 compounds can be found in publication PMC9820167, “Design and Synthesis of Conformationally Flexible Scaffold as Bitopic Ligands for Potent D3-Selective Antagonists” (International Journal of Molecular Sciences, 2022).

Structures are written as SMILES. Read-outs that look alike come from different tables or passages of the source.

Assay [1] has as its target T1, human D2 receptors (Homo sapiens, UniProt P14416).
T1 construct: expressed in transfected cells; host or cells: HEK293
Kind of assay: Radioligand binding assay with [125I]IABN, D2 receptor. To be noted: [125I]IABN, D2 receptors expressed in HEK cells; mean ± SEM, three experiments; HCl salts; read-out: Ki ± SEM (nM) D2. How it is done: Two different assays were used to evaluate the properties of the analogs described above. The receptor binding affinity was measured by radioligand binding assays using [^125I]IABN with D2 or D3 receptors highly expressed HEK293 cells. The functional activity of the analogs was determined using a β-arrestin recruitment assay. […] The results of the antagonist mode assay are reported as IC50 values.
(§1) Ki values for D2 and D3 receptors were measured using [^125I]IABN in human D2 and D3 receptors expressed in HEK cells, respectively. A filtration binding assay was used to characterize membrane-associated receptor binding properties. The details for the procedures were described in the literature.

The target in assay [2] is T2, human D3 receptors (Homo sapiens, UniProt P35462). Kind of assay: Radioligand binding assay with [125I]IABN, D3 receptor. Further details: expressed in transfected cells; host or cells: HEK293. To be noted: for Ki: [125I]IABN, D3 receptors expressed in HEK cells, mean ± SEM, three experiments, HCl salts, read-out: Ki ± SEM (nM) D3; for D2/D3: selectivity ratio of Ki D2 / Ki D3 (fold). How it is done: (§2) Two different assays were used to evaluate the properties of the analogs described above. The receptor binding affinity was measured by radioligand binding assays using [^125I]IABN with D2 or D3 receptors highly expressed HEK293 cells. The functional activity of the analogs was determined using a β-arrestin recruitment assay. The assay was initially conducted in agonist binding mode to confirm that they function as antagonists at the D3 receptor. Once this efficacy was confirmed, the assay was conducted in antagonist mode to determine the ability of the antagonist to compete with dopamine at the D3 receptor. The results of the antagonist mode assay are reported as IC50 values.
as §1

For assay [3], the target named is T2, human D3 receptors. Kind of assay: β-arrestin recruitment assay (antagonist mode, competition with dopamine). Type of assay: cell-based. Details: expressed in transfected cells. Particulars: for Emax: percentage of the maximum inhibition of dopamine at EC80 concentration, read-out: Imax (% Control); for IC50: potency for D3 receptors, CHO-K1 cells, vs 30 nM (EC80) dopamine, mean ± SD, three experiments, read-out: IC50. How it is done: as §2
CHO-K1 cells which were overexpressed human D3 receptors were cultured in assaycomplete^TM cell culture kit 107. Cells were seeded at a density of 25,000 cells per well of 96-well plate, and incubated at 5% CO2, 37 °C. Two days later, test compounds were dissolved in DMSO, and diluted with 11-point series in phosphate-buffered saline (PBS). Prepared compounds were added to the cells, and it was incubated for 30 min at 5% CO2, 37 °C. Then, cells were treated with 30 nM (EC80) of dopamine, and the plate was incubated another 90 min. PathHunter^TM detection reagent was added to each well, and then plate was incubated for 80 min at RT in the dark. The chemiluminescent signal was measured by PerkinElmer Enspire plate reader (PerkinElmer, Boston, MA). Data were analyzed by Prism followed by non-linear regression.

Assay [4] concerns the target D2 receptors. Particulars: cited from earlier work.

T2 sequence (P35462 whole entry): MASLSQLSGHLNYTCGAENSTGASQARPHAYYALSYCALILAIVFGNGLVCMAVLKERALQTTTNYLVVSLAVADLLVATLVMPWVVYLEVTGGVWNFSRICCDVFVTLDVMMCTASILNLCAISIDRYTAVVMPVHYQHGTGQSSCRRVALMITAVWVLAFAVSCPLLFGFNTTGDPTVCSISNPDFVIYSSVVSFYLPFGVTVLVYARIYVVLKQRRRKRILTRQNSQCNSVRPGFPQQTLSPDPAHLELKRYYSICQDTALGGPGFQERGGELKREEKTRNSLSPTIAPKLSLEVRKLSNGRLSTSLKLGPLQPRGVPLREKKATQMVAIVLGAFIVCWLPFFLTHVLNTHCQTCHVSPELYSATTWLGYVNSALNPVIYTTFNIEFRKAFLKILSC
T1 sequence (P14416 whole entry): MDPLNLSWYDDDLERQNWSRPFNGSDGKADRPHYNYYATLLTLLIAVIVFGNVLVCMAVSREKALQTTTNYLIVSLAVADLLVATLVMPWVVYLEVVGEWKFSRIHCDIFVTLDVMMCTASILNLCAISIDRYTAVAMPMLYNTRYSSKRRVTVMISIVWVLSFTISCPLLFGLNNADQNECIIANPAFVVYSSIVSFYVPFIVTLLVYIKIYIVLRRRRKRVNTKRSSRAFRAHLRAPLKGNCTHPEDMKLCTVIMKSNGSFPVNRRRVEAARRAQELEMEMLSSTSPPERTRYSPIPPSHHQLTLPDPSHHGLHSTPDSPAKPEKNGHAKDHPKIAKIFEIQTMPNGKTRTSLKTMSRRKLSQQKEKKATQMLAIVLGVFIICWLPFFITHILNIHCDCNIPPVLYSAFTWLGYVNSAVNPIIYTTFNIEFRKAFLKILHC

As to `CCN(C)CCCNC(=O)c1ccc(-c2cccs2)cc1` [compound 14, N-(3-(Ethyl(methyl)amino)propyl)-4-(thiophen-2-yl)benzamide], the Ki in assay [1] and in assay [2] was greater than 1000 nM throughout.
The IC50 is the concentration at which inhibition is half-maximal. `CCN(CCCCCN(C)C)CCNC(=O)c1cc(Br)cc(OC)c1OC` [6d, 5-Bromo-N-(2-((5-(dimethylamino)pentyl)(ethyl)amino)ethyl)-2,3-dimethoxybenzamide]: in assay [1], the Ki amounted to 449 ± 90 nM. Besides, in assay [3], the Emax came out at 94 ± 6.4% and the IC50 turned out to be 152 ± 185 nM. In assay [2], the Ki was 141 ± 26 nM and the D2/D3 is listed as 3.2.
On to `CCN(CCCCNC(=O)c1ccc(-c2cccs2)cc1)CCNC(=O)c1cc(Br)cc(OC)c1OC` [9b, 5-Bromo-N-(2-(ethyl(4-(4-(thiophen-2-yl)benzamido)butyl)amino)ethyl)-2,3-dimethoxybenzamide], for which, in assay [1], the Ki was 103 ± 14 nM. In addition, in assay [3], the Emax was determined as 70.8 ± 7.3% and the IC50 turned out to be 104 ± 136 nM. In addition, in assay [2], the Ki was found to be 8 ± 0.8 nM and the D2/D3 stood at 12.9.
On to `C=CCN1CCC[C@H]1CNC(=O)c1cc(CCCF)cc(OC)c1OC` [fallypride], for which the Ki in assay [4] (read-out: Ki D2) is 0.02 nM.
In the case of `CCN(CCCCN(C)C)CCNC(=O)c1cc(Br)cc(OC)c1OC` [6c, 5-Bromo-N-(2-((4-(dimethylamino)butyl)(ethyl)amino)ethyl)-2,3-dimethoxybenzamide], the Ki in assay [1] was 5420 ± 1040 nM. In assay [3], the Emax stood at 98 ± 5.6% and the IC50 was greater than 1000 nM. In assay [2], the Ki is 1630 ± 165 nM and the D2/D3 was determined as 3.3.
The matching figures for `C=CCN(CCCNC(=O)c1ccc(-c2cccs2)cc1)CCNC(=O)c1cc(Br)cc(OC)c1OC` [20b, N-(2-(Allyl(3-(4-(thiophen-2-yl)benzamido)propyl)amino)ethyl)-5-bromo-2,3-dimethoxybenzamide]: 243 ± 15 nM, 101 ± 7.9%, 51.6 ± 40.8 nM, 5.8 ± 1 nM and 46.7.
Turning to `CCN(CCCCSc1nnc(-c2ccccc2)n1C)CCNC(=O)c1cc(Br)cc(OC)c1OC` [11a, 5-Bromo-N-(2-(ethyl(4-((4-methyl-5-phenyl-4H-1,2,4-triazol-3-yl)thio)butyl)amino)ethyl)-2,3-dimethoxybenzamide], in assay [1], the Ki was 342 ± 23 nM. For the same compound, in assay [2], the Ki was determined as 125 ± 2 nM and the D2/D3 is on record as 2.7.
Turning to `CCN(CCCNC(=O)c1ccncc1)CCNC(=O)c1cc(Br)cc(OC)c1OC` [21f, N-(3-((2-(5-Bromo-2,3-dimethoxybenzamido)ethyl)(ethyl)amino)propyl)isonicotinamide], the Ki in assay [1] is 327 ± 32 nM. Besides, in assay [3], the Emax was found to be 85.7 ± 13.1% and the IC50 was 2.7 ± 0.6 nM. In assay [2], the Ki turned out to be 6.1 ± 0.6 nM and the D2/D3 was 53.7.
For the compound `CCN(C)CCNC(=O)c1cc(Br)cc(OC)c1OC` [compound 12, 5-Bromo-N-(2-(ethyl(methyl)amino)ethyl)-2,3-dimethoxybenzamide], the Ki was determined as 89.2 ± 5.6 nM in assay [1] and 21.8 ± 5.1 nM in assay [2].
As to `CCN(CCCCN(C)C)CCNC(=O)c1cc(CCCF)cc(OC)c1OC` [6a, N-(2-((4-(Dimethylamino)butyl)(ethyl)amino)ethyl)-5-(3-fluoropropyl)-2,3-dimethoxybenzamide], in assay [1], the Ki stood at 4560 ± 2450 nM. In addition, in assay [3], the Emax came out at 92.7 ± 5.4% and the IC50 is greater than 1000 nM. Further, in assay [2], the Ki was 1760 ± 942 nM and the D2/D3 is on record as 2.6.
For `COc1cc(Br)cc(C(=O)NCCN(CCCNC(=O)c2ccc(-c3cccs3)cc2)Cc2ccc(F)cc2)c1OC` [20c, 5-Bromo-N-(2-((4-fluorobenzyl)(3-(4-(thiophen-2-yl)benzamido)propyl)amino)ethyl)-2,3-dimethoxybenzamide], the figures for the Ki in assay [1] and in assay [2] were 574 ± 170 nM and 299 ± 101 nM, respectively. For the same compound, the D2/D3 in assay [2] turned out to be 1.9.
The matching figures for `CCN(CCCCCSc1nnc(-c2ccccc2)n1C)CCNC(=O)c1cc(Br)cc(OC)c1OC` [11b, 5-Bromo-N-(2-(ethyl(5-((4-methyl-5-phenyl-4H-1,2,4-triazol-3-yl)thio)pentyl)amino)ethyl)-2,3-dimethoxybenzamide]: 89.7 ± 3.6 nM, 22.2 ± 1.8 nM and 4.6.
For `CCN(CCCNC(=O)c1ccnc2ccccc12)CCNC(=O)c1cc(Br)cc(OC)c1OC` [21b, N-(3-((2-(5-Bromo-2,3-dimethoxybenzamido)ethyl)(ethyl)amino)propyl)quinoline-4-carboxamide], in assay [3], the Emax came to 75.2 ± 4.8% and the IC50 was 19.6 ± 23.7 nM. Besides, in assay [2], the Ki worked out at 13.2 ± 0.5 nM and the D2/D3 worked out at 39.8.
As for `CCN(CCCNC(=O)c1cccc(N(C)C)c1)CCNC(=O)c1cc(Br)cc(OC)c1OC` [21h, 5-Bromo-N-(2-((3-(3-(dimethylamino)benzamido)propyl)(ethyl)amino)ethyl)-2,3-dimethoxybenzamide], in assay [1], the Ki amounted to 248 ± 19 nM. Moreover, in assay [3], the Emax was determined as 73.8 ± 14.9% and the IC50 was found to be 4.1 ± 2.1 nM. Further, in assay [2], the Ki was 11.2 ± 1.4 nM and the D2/D3 was determined as 22.1.
The matching figures for `CCN(CCCCCN(C)C)CCNC(=O)c1cc(CCCF)cc(OC)c1OC` [6b, N-(2-((5-(Dimethylamino)pentyl)(ethyl)amino)ethyl)-5-(3-fluoropropyl)-2,3-dimethoxybenzamide]: 2810 ± 571 nM, 98.4 ± 2.9%, 430 ± 467 nM, 1240 ± 438 nM and 2.3.
For `CCN1CCC[C@H]1CNC(=O)c1cc(Br)cc(OC)c1OC` [[^11C]FLB457, FLB457], in assay [4] (read-out: Ki for D2/D3 receptors (D2)), the Ki was 0.02 nM.
